The source of these data is ChEMBL document CHEMBL5465560, “Selectivity Literature for EUbOPEN Chemogenomic Library” (2024).

Assay [1] has as its target T1, Protein kinase C epsilon type (Homo sapiens) (UniProt Q02156).
T1 sequence (whole entry): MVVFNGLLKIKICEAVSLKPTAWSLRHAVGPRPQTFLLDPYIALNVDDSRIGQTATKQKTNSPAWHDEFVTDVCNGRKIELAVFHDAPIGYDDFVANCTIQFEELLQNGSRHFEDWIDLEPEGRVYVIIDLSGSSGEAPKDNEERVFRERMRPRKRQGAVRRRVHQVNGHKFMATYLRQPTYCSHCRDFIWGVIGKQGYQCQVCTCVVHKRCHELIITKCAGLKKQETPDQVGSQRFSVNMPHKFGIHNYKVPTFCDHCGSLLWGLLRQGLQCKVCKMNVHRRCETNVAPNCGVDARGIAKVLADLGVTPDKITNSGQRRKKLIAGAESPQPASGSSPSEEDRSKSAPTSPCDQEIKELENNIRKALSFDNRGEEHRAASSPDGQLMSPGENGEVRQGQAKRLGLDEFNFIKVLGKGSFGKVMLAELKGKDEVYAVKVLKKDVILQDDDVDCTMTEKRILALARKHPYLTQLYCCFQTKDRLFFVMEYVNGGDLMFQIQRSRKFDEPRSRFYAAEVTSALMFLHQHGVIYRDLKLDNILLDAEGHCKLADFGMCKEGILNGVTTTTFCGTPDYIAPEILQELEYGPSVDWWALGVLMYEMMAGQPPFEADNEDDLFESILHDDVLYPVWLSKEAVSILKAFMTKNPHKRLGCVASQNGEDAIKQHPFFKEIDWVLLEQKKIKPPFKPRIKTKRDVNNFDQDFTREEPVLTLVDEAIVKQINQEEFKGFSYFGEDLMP
In words: Selectivity interaction (KinomeScan (DiscoverX)) EUB0000607a PRKCE. The conditions noted are these: at 10 µM.

Assay [2] deals with T2, Interleukin-1 receptor-associated kinase 3 (Homo sapiens) (UniProt Q9Y616).
T2 sequence (whole entry): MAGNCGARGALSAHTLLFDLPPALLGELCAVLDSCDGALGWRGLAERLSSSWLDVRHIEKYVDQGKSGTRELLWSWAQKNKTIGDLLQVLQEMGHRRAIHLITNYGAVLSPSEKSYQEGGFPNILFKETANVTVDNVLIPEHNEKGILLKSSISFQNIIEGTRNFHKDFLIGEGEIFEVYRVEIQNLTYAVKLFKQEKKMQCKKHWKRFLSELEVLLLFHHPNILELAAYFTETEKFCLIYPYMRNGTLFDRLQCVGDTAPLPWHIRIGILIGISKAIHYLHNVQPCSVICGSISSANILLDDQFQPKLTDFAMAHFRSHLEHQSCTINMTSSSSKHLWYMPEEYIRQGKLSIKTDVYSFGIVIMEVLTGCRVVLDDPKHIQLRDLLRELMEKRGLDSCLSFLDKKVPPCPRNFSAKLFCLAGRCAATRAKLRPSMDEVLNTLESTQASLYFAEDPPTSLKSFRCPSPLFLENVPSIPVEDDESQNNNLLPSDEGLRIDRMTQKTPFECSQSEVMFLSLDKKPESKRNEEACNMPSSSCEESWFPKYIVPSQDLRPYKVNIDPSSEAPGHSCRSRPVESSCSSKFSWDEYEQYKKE
In words: Selectivity interaction (ActivX KiNativ screen (ex vivo kinase selectivity in human PBMCs)) EUB0001619a IRAK3. In kind it is cell-based. The conditions noted are these: PBMC, at 1 µM.

Assay [3] concerns the target T3, Mitogen-activated protein kinase kinase kinase 5 (Homo sapiens) (UniProt Q99683).
T3 sequence (whole entry): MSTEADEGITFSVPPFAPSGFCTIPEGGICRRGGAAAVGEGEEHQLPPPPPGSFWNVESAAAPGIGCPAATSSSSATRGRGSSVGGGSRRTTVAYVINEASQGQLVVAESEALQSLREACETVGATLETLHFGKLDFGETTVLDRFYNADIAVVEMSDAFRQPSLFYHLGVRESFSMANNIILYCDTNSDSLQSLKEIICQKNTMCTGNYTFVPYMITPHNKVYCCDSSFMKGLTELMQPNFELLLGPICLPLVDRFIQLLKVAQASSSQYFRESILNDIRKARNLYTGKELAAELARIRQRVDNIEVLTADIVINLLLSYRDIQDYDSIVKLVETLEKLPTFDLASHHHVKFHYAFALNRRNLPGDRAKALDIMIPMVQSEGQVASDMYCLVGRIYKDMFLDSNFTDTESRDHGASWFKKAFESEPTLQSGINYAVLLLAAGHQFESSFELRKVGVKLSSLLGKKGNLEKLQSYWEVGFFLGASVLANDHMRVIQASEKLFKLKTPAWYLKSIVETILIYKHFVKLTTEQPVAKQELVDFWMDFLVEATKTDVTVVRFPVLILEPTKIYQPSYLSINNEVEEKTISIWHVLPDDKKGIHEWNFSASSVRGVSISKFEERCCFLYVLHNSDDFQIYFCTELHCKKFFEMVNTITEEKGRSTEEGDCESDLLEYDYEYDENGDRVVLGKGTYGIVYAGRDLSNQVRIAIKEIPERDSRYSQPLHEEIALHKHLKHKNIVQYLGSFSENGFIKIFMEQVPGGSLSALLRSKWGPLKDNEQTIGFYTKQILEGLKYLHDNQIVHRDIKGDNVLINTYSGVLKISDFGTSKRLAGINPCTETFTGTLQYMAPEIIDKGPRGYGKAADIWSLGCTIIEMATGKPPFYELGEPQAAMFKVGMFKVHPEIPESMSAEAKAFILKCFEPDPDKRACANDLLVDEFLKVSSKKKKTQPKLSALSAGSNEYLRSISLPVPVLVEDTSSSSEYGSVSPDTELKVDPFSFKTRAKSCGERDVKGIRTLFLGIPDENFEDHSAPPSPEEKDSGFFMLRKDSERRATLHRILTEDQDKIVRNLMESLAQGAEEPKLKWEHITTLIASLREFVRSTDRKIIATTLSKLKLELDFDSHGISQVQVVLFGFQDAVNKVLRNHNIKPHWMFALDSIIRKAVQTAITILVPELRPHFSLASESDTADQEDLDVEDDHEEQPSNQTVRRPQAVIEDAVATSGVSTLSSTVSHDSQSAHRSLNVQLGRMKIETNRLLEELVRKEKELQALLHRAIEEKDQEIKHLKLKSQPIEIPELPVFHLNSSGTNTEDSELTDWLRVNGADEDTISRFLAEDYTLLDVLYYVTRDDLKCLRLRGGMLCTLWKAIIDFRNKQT
The experiment in a line: Selectivity interaction (ActivX KiNativ screen (ex vivo kinase selectivity in human PBMCs)) EUB0001619a MAP3K5. In kind it is cell-based. As to conditions: PBMC, at 1 µM.

The compound `CNC(=O)Nc1ccc(-c2nc(N3CC4CCC(C3)O4)c3cnn(C4CCC5(CC4)OCCO5)c3n2)cc1` gave a % of control in assay [1] of 100%.
For the compound `N#Cc1cccc(-c2c[nH]c3ncnc(N4CCOCC4)c23)c1`, the % of inhibition is 34% in assay [2] and 21% in assay [3].
